From ChEMBL document CHEMBL3507680, “University of Dundee, Gates Library screen for HepG2 cell viability”

Test: Human HepG2 cell viability assay in 384 well format
Format: toxicity, cell-based
Design: dose 125 nL, time 70.5 hour; cytotoxicity at 70.5 h: concentration not given beside the values
Details: HepG2 cells, read-out: Inhibition

| Structure (SMILES) | cytotoxicity at 70.5 h |
| --- | --- |
| CC(C)S(=O)(=O)N1C[C@H]2OC(=O)N(CCc3cccc(Cl)c3)[C@H]2C1 | -4.98% |
| CCn1cc(-c2cc(C(=O)N3CCOCC3)c3cc(Cl)ccc3n2)cn1 | -5.95% |
| CC(C)Cc1cc(CNC(=O)c2cccc3c2OCC3)no1 | -9.93% |
| N[C@@H]1c2ccccc2C2(CCN(c3ncccc3C(F)(F)F)CC2)[C@H]1O | 44.1% |
| CCn1ccc(C(=O)N(C)Cc2cnn(-c3cccc(OC)c3)c2)n1 | -11.2% |
| c1ccc(OCCNc2ncnc3sc4c(c23)CCNC4)cc1 | 1.62% |
| COc1ccccc1CN1C(=O)O[C@@H]2CN(c3nc(C)cc(C)n3)C[C@@H]21 | -3.9% |
| O=C(CNCC1(O)CCCN(Cc2cccc(F)c2F)C1=O)NC1CC1 (stereo not given) | -1.7% |
| CCN(Cc1ccncc1)C(=O)c1cn(CC2CCCNC2)nn1 (stereo not given) | -17.4% |
| Cc1nn(C)c(C)c1CN(Cc1cccn1-c1ccccn1)C(C)C | 9.47% |
| C[C@@H]1CN(c2cc(N3CCC(O)CC3)ncn2)C[C@@]1(O)C1CC1 | -0.962% |
| Cn1cccc1C(=O)N1CCC2(CC1)c1nc[nH]c1CCN2S(C)(=O)=O | -3.6% |
| Cc1cc(C)nc(NCCSc2cnn[nH]2)n1 | -2% |
| CC(C)N1CCN(CCn2cnc3c(F)cccc3c2=O)CC1 | -2.82% |
| Cn1c(-c2ccccc2Cl)nc2cc(C(=O)NCC3(C)COC3)cnc21 | 4.56% |
| CCC(CC)NCC(c1ccccn1)N1CCOCC1 (stereo not given) | 2.77% |
| O=C(NC1CC(=O)N(C2Cc3ccccc3C2)C1)c1cc[n+]([O-])cc1 (stereo not given) | 9.2% |
| CSCc1noc(CN2CCCCC2CCc2ccc(O)cc2)n1 (stereo not given) | -2.26% |
| COc1cc(C)c(-c2ccc(F)c3c2OC(CN)C3)cc1C (stereo not given) | -0.0935% |
| CC(C)c1cc(C2CCN(C(=O)Cn3cnnn3)CC2)[nH]n1 | -6.46% |
| O=C(c1cccc(O)c1)N1C[C@@H](CN2CCCCC2)[C@@H](CO)C1 | -4.01% |
| OCC1(O)CCN(c2ncccc2C(F)(F)F)CC1 | -0.128% |
| Cc1cnc(-c2cccc(-c3ccn(CCCO)n3)c2)nc1N(C)C | -3.76% |
| CNC(=O)c1nc(CN2CCOC(Cc3ccc(F)cc3)C2)no1 (stereo not given) | -15.2% |
| CC(C)(CN1CCCC1)CN1CCC(Cn2cc(C3CC3)nn2)CC1 | -9.26% |
| COC(C)(C)Cn1ccnc1-c1cccc(C(C)N(C)C)c1 (stereo not given) | -7.08% |
| CS(=O)(=O)N1CCc2[nH]nc(Cc3cccs3)c2C1 | -2.7% |
| CCOc1ccccc1CN(CC)Cc1ccc(S(=O)(=O)NC)cc1 | -5.11% |

| Structure (SMILES) | cytotoxicity at 70.5 h |
| --- | --- |
| Cc1cc(C)nc(N2CC[C@@]3(O)CCN(S(=O)(=O)N(C)C)C[C@H]3C2)n1 | 16.5% |
| COC[C@H](C)Nc1cc(C)c2ccc(SC)cc2n1 | -8% |
| COc1cc(OC)c2nc(NCCN3CCNC3=O)cc(C)c2c1 | 2.59% |
| COC(=O)N1CCC(c2nnc(Cn3ccnc3)n2C)CC1 | -2.68% |
| c1ccc(-c2n[nH]c(CCNc3nnc(C4CCC4)o3)n2)cc1 | -7.22% |
| CCN(Cc1ccncc1)C(=O)c1cn(CCC2CCCCC2)nn1 | -16% |
| CC(C)Cc1nc(CN2CC(=O)N(C)c3ccccc3C2=O)no1 | 2.18% |
| CN(C)C(=O)CN1C[C@@H]2CC[C@H](C1)N(Cc1ccc3nsnc3c1)C2 | 3.82% |
| COc1ccccc1CC(=O)N1C[C@H]2CC[C@@H]1CN(Cc1cscn1)C2 | -12.1% |
| O=C1CC2(CCN(Cc3ccc4cccc(O)c4n3)CC2)CN1 | -5.81% |
| CC(=O)c1ccc(C(=O)N2C[C@@H]3CC[C@H](C2)N(Cc2ccccc2)C3)s1 | 4.96% |
| c1nc(CCNc2nc(C3CC3)nc3c2CCNCC3)c[nH]1 | -10.1% |
| CC(C)[C@@H]1CN(C(=O)CCc2ccc(F)cc2)C[C@H]1C(=O)O | 28.6% |
| CCN(C)CC(=O)N1CCc2nc(NC)nc(C(=O)N3CCCC3)c2C1 | 2.56% |
| CC(C)CN1CC(c2nc(CCc3ccccc3)n[nH]2)CC1=O (stereo not given) | -9.23% |
| FC(F)(F)c1ccc(-c2noc3c2CN(CC2CCCO2)CC3)cc1 (stereo not given) | -10.2% |
| COc1nc2ccccc2cc1CN1CCCC(CNC(C)=O)C1 (stereo not given) | -4.14% |
| Cc1cc(=O)c(C(=O)N2CCCCC2c2ccc(F)cc2)c[nH]1 (stereo not given) | -4.63% |
| Cc1noc(C)c1C1CCCN1C(=O)CN1C(=O)OC(C)(C)C1=O (stereo not given) | 26.8% |
| CC(=O)N(C/C=C/c1ccccc1)CCO | 7.41% |
| NCC1CCN(c2nc(C3CCCC3)nc3c2CCNCC3)C1 (stereo not given) | 21.5% |
| COC1CCCN(Cc2cc(O)c3cc(C)cc(C)c3n2)C1 (stereo not given) | -2.68% |
| CN1CCCCC1CCC(=O)NCCSc1cnn[nH]1 (stereo not given) | -2.59% |
| CC(C)N1CCC(C(=O)N[C@H](C(=O)O)c2cccc(F)c2F)CC1 | -1.13% |
| Nc1nc(CC(=O)N2CCCC(CCc3cccc(F)c3)C2)cc(=O)[nH]1 (stereo not given) | -12.2% |
| CC1(C)CNC(=O)c2nc(-c3ccccc3)[nH]c2C1 | 14.6% |
| CCCc1nnc(NC2CCN(Cc3ccc(F)c(F)c3)CC2)o1 | -6.56% |
